The numbers were not newly measured in PMC4474874, “Effect of JAK Inhibitors on Release of CXCL9, CXCL10 and CXCL11 from Human Airway Epithelial Cells” (PLoS ONE, 2015), which cites them from elsewhere.

The test system of one data set is FGFR1. Also on record: method as in PMID 18094329. The settings on record: inactive or IC50 >30μM; read-out: IC50 against FGFR1; cited from earlier work.
Another data set relates to JAK/JAK3. Set-up: method as in PMID 18094329. The settings on record: cellular assay; cited from earlier work.
In data set [1] the test system is chronic lymphocytic leukaemia cells. Set-up: method as in PMID 20716767. The settings on record: cited from earlier work.
The next data set has as its system cdk2. Also on record: method as in PMID 18094329. The settings on record: inactive or IC50 >30μM; read-out: IC50 against cdk2; cited from earlier work.
In the next data set the test system is MAPK1. Also on record: method as in PMID 18094329. The settings on record: inactive or IC50 >30μM; read-out: IC50 against MAPK1; cited from earlier work.
For data set [2], the system named is TrkA. Set-up: method as in PMID 18094329. The settings on record: inactive or IC50 >30μM; read-out: IC50 against TrkA; cited from earlier work.
A further data set deals with PKA. Set-up: method as in PMID 18094329. The settings on record: at concentrations >5μM; cited from earlier work.
The subject of another data set is AKT. Set-up: method as in PMID 18094329. The settings on record: inactive or IC50 >30μM; read-out: IC50 against AKT; cited from earlier work.
The subject of a further data set is PAK4. Set-up: method as in PMID 18094329. The settings on record: inactive or IC50 >30μM; read-out: IC50 against PAK4; cited from earlier work.
Another data set concerns JAK2. Set-up: method as in PMID 18094329. The settings on record: cellular assay; cited from earlier work.
In the next data set the test system is MET. Also on record: method as in PMID 18094329. The settings on record: inactive or IC50 >30μM; read-out: IC50 against MET; cited from earlier work.
The test system of a further data set is ROCK1. Also on record: method as in PMID 18094329. The settings on record: inactive or IC50 >30μM; read-out: IC50 against ROCK1; cited from earlier work.
A further data set has as its system INSR. Set-up: method as in PMID 18094329. The settings on record: inactive or IC50 >30μM; read-out: IC50 against INSR; cited from earlier work.
The next data set relates to PKCb. Also on record: method as in PMID 18094329. The settings on record: inactive or IC50 >30μM; read-out: IC50 against PKCb; cited from earlier work.
For the next data set, the system named is Lck. Also on record: method as in PMID 18094329. The settings on record: at concentrations >5μM; cited from earlier work.
Another data set has as its system cdk6. Set-up: method as in PMID 18094329. The settings on record: inactive or IC50 >30μM; read-out: IC50 against cdk6; cited from earlier work.
A further data set deals with AuroraA. Set-up: method as in PMID 18094329. The settings on record: inactive or IC50 >30μM; read-out: IC50 against AuroraA; cited from earlier work.
The next data set deals with MASK. Also on record: method as in PMID 18094329. The settings on record: inactive or IC50 >30μM; read-out: IC50 against MASK; cited from earlier work.
In another data set the test system is IKKb. Also on record: method as in PMID 18094329. The settings on record: inactive or IC50 >30μM; read-out: IC50 against IKKb; cited from earlier work.
Data set [3] relates to ~30 other kinase pathways. Set-up: method as in PMID 18094329. The settings on record: including AKT, GSK3β, IKKβ, IKKi, MAPK1, MAPKAP-K2, MASK, MET, and ROCK1; cited from earlier work.
The next data set deals with JAK3. Also on record: method as in PMID 18094329. The settings on record: read-out: IC50 against JAK3; cited from earlier work.
A further data set has as its system CHK1. Also on record: method as in PMID 18094329. The settings on record: inactive or IC50 >30μM; read-out: IC50 against CHK1; cited from earlier work.
The subject of the next data set is JAK1. Set-up: method as in Coe et al., 25. The settings on record: ref Coe et al., 25, cited from earlier work.
The test system of data set [4] is TrkA. Set-up: method as in Coe et al., 25. The settings on record: ATP at the Km; ref Coe et al., 25; cited from earlier work.
The next data set concerns MST4. Set-up: method as in Coe et al., 25. The settings on record: ATP at the Km; ref Coe et al., 25; cited from earlier work.
The subject of a further data set is MLK1. Set-up: method as in Coe et al., 25. The settings on record: ATP at the Km; ref Coe et al., 25; cited from earlier work.
Data set [5] relates to human T lymphocytes (JAK1/3). Also on record: method as in Coe et al., 25. The settings on record: ref Coe et al., 25; read-out: IC50 IL-2-induced IFNγ release by human T lymphocytes (JAK1/3); cited from earlier work.
A further data set deals with TYK2. Set-up: method as in Coe et al., 25. The settings on record: ref Coe et al., 25, cited from earlier work.
Data set [6] concerns human T lymphocytes (JAK1/2). Set-up: method as in Coe et al., 25. The settings on record: ref Coe et al., 25; read-out: IC50 IL-12-induced IFNγ release by human T lymphocytes (JAK1/2); cited from earlier work.
The subject of another data set is TAOK2. Set-up: method as in Coe et al., 25. The settings on record: ATP at the Km; ref Coe et al., 25; cited from earlier work.
Another data set deals with GSK3β. Set-up: method as in Coe et al., 25. The settings on record: ATP at the Km; ref Coe et al., 25; cited from earlier work.

Where two headings read alike, the source gives them in different places.

With `C[C@@H]1CCN(C(=O)N2CCCC2)C[C@@H]1N(C)c1ncnc2[nH]ccc12` [PF956980], the IC50 in the data set with FGFR1 is over 30000 nM; with JAK/JAK3, 22 nM; in the data set with cdk2, over 30000 nM; in the data set on MAPK1, over 30000 nM; in the data set on TrkA [2] it was over 30000 nM; in the data set on AKT, over 30000 nM. In addition, the IC50 with PAK4 is over 30000 nM; in the data set with JAK2, 188 nM; with MET, over 30000 nM; with ROCK1, over 30000 nM; with INSR, over 30000 nM; in the data set on PKCb it was over 30000 nM. The IC50 was over 30000 nM with cdk6; over 30000 nM in the data set with AuroraA; over 30000 nM in the data set with MASK; over 30000 nM in the data set on IKKb; about 4 nM with JAK3; over 30000 nM in the data set with CHK1. Also, the “concentration effective against IL-4-induced cytotoxic resistance” value in data set [1] is reported as ~ 0.3 μM. The “effect against PKA” value in the data set on PKA is reported as “modest effects”. In addition, the “effect against Lck” value with Lck is “modest effects”. The “effect on ~30 other kinase pathways” value in data set [3] was “no effect”.
On to `CCc1cc(O)ccc1-c1ccc2c(-c3nc4ccccc4[nH]3)n[nH]c2c1` [PF1367550, 4-(3-(1H-benzo[d]imidazol-2-yl)-1H-indazol-6-yl)-3-ethylphenol], for which the IC50 in the data set with JAK1 (1mM ATP, read-out: IC50 JAK1 1 mM) was 0.4 nM; in the data set on JAK1 (ATP at the Km, read-out: IC50 JAK1 Km) it was 0.8 nM; in the data set on TrkA [4], 227 nM; with MST4, 692 nM; with MLK1, 54 nM; in [5] it was 14 nM. In addition, the IC50 in the data set on TYK2 (1mM ATP, read-out: IC50 TYK2 1 mM) is 8.4 nM; with TYK2 (ATP at the Km, read-out: IC50 TYK2 Km) it was 0.8 nM; in [6], 45 nM; with TAOK2, 781 nM; in the data set on GSK3β, 617 nM.
